Results: ChEMBL document CHEMBL3865792, “Antioxidant and antitumor activity of trolox, trolox succinate, and α-tocopheryl succinate conjugates with nitroxides” (Eur J Med Chem, 2016)
pIC50: −log10 of the molar value.

Test system: not listed separately
Assay: Cytotoxicity against human RPMI8226 cells assessed as reduction in cell viability after 72 hrs by MTT assay
Format: functional, cell-based
Conditions: RPMI-8226, 72 h

SMILES	pIC50
Cc1c(C)c2c(c(C)c1O)CCC(C)(C(=O)NCC1CC(C)(C)N([O])C1(C)C)O2 (stereo not drawn)	4.15

Test system: not listed separately
Assay: Genotoxicity in Escherichia coli PQ37 expressing lacZ gene assessed as ratio of inducible beta-galactosidase activity to alkaline phosphatase activity at 30 mM after 2 hrs by SOS-chromotest relative to control
Format: toxicity
Conditions: Escherichia coli PQ37 cells expressing lacZ gene, read-out: FC

SMILES	fold induction at 2 h, 30000 µM
Cc1c(C)c2c(c(C)c1O)CCC(C)(C(=O)NCC1CC(C)(C)N([O])C1(C)C)O2 (stereo not drawn)	1

Test system: Salmonella typhimurium
Assay: Genotoxicity in Salmonella typhimurium TA102 harboring […] mutant assessed as frequency of reversion from histidine auxotrophy to prototrophy at 30 mM after 48 hrs by Ames test (reference value: 209 +/- 10 No _unit)
Format: toxicity, organism-based
Conditions: salmonella enterica subsp. enterica serovar typhimurium, 30000 µM

SMILES	Activity
Cc1c(C)c2c(c(C)c1O)CCC(C)(C(=O)NCC1CC(C)(C)N([O])C1(C)C)O2 (stereo not drawn)	225

Test system: not listed separately
Assay: Ratio of IC50 for human MT4 cells to concentration causing antioxidant activity in Salmonella typhimurium TA102 harboring […] mutant
Format: functional
Conditions: not given

SMILES	Ratio
Cc1c(C)c2c(c(C)c1O)CCC(C)(C(=O)NCC1CC(C)(C)N([O])C1(C)C)O2 (stereo not drawn)	100 - 1000

Test system: not listed separately
Assay: Cytotoxicity against human MCF7 cells assessed as reduction in cell viability after 72 hrs by MTT assay
Format: functional, cell-based
Conditions: MCF7, 72 h

SMILES	pIC50
Cc1c(C)c2c(c(C)c1O)CCC(C)(C(=O)NCC1CC(C)(C)N([O])C1(C)C)O2 (stereo not drawn)	< 3.52

Test system: not listed separately
Assay: Cytotoxicity against mouse LMTK cells assessed as reduction in cell viability after 72 hrs by MTT assay
Format: toxicity
Conditions: not given

SMILES	IC50 at 72 h
Cc1c(C)c2c(c(C)c1O)CCC(C)(C(=O)NCC1CC(C)(C)N([O])C1(C)C)O2 (stereo not drawn)	300 µM

Test system: not listed separately
Assay: Cytotoxicity against human HepG2 cells assessed as reduction in cell viability after 72 hrs by MTT assay
Format: functional, cell-based
Conditions: HepG2, 72 h

SMILES	pIC50
Cc1c(C)c2c(c(C)c1O)CCC(C)(C(=O)NCC1CC(C)(C)N([O])C1(C)C)O2 (stereo not drawn)	< 3.52

Test system: not listed separately
Assay: Ratio of IC50 for human CEM13 cells to concentration causing antioxidant activity in Salmonella typhimurium TA102 harboring […] mutant
Format: functional
Conditions: not given

SMILES	Ratio
Cc1c(C)c2c(c(C)c1O)CCC(C)(C(=O)NCC1CC(C)(C)N([O])C1(C)C)O2 (stereo not drawn)	100 - 1000

Test system: not listed separately
Assay: Ratio of IC50 for human MCF7 cells to concentration causing antioxidant activity in Salmonella typhimurium TA102 harboring […] mutant
Format: functional
Conditions: not given

SMILES	Ratio
Cc1c(C)c2c(c(C)c1O)CCC(C)(C(=O)NCC1CC(C)(C)N([O])C1(C)C)O2 (stereo not drawn)	100 - 1000

Test system: Salmonella enterica subsp. enterica serovar Typhimurium
Assay: Antioxidant activity in Salmonella typhimurium TA102 harboring […] mutant assessed as inhibition of t-BuO2H-dependant mutant formation at 0.3 uM preincubated with compound followed by t-BuO2H addition after 48 hrs by Ames test
Format: functional
Conditions: not given

SMILES	inhibition
Cc1c(C)c2c(c(C)c1O)CCC(C)(C(=O)NCC1CC(C)(C)N([O])C1(C)C)O2 (stereo not drawn)	26%

Test system: not listed separately
Assay: Cytotoxicity against human MCF7 cells assessed as reduction in cell viability at 300 uM after 72 hrs by MTT assay
Format: functional
Conditions: MCF7, 72 h

SMILES	inhibition at 300 µM
Cc1c(C)c2c(c(C)c1O)CCC(C)(C(=O)NCC1CC(C)(C)N([O])C1(C)C)O2 (stereo not drawn)	34%

Test system: not listed separately
Assay: Cytotoxicity against human CEM13 cells assessed as reduction in cell viability at 300 uM after 72 hrs by MTT assay
Format: functional
Conditions: CEM13, 72 h

SMILES	inhibition at 300 µM
Cc1c(C)c2c(c(C)c1O)CCC(C)(C(=O)NCC1CC(C)(C)N([O])C1(C)C)O2 (stereo not drawn)	32%

Test system: Salmonella enterica subsp. enterica serovar Typhimurium
Assay: Antioxidant activity in Salmonella typhimurium TA102 harboring […] mutant assessed as inhibition of t-BuO2H-dependant mutant formation at 30 uM preincubated with compound followed by t-BuO2H addition after 48 hrs by Ames test
Format: functional
Conditions: not given

SMILES	inhibition
Cc1c(C)c2c(c(C)c1O)CCC(C)(C(=O)NCC1CC(C)(C)N([O])C1(C)C)O2 (stereo not drawn)	17.7%

Test system: not listed separately
Assay: Ratio of IC50 for human U937 cells to concentration causing antioxidant activity in Salmonella typhimurium TA102 harboring […] mutant
Format: functional, U-937
Conditions: not given

SMILES	Ratio
Cc1c(C)c2c(c(C)c1O)CCC(C)(C(=O)NCC1CC(C)(C)N([O])C1(C)C)O2 (stereo not drawn)	100 - 1000

Test system: Salmonella enterica subsp. enterica serovar Typhimurium
Assay: Antioxidant activity in Salmonella typhimurium TA102 harboring […] mutant assessed as inhibition of t-BuO2H-dependant mutant formation at 3 uM preincubated with compound followed by t-BuO2H addition after 48 hrs by Ames test
Format: functional
Conditions: not given

SMILES	inhibition
Cc1c(C)c2c(c(C)c1O)CCC(C)(C(=O)NCC1CC(C)(C)N([O])C1(C)C)O2 (stereo not drawn)	21.5%

Test system: not listed separately
Assay: Ratio of IC50 for human HEPG2 cells to concentration causing antioxidant activity in Salmonella typhimurium TA102 harboring […] mutant
Format: functional
Conditions: not given

SMILES	Ratio
Cc1c(C)c2c(c(C)c1O)CCC(C)(C(=O)NCC1CC(C)(C)N([O])C1(C)C)O2 (stereo not drawn)	100 - 1000

Test system: not listed separately
Assay: Cytotoxicity against hamster AG17-1 cells assessed as reduction in cell viability after 72 hrs by MTT assay
Format: toxicity, cell-based, Cricetulus griseus
Conditions: Chinese hamster

SMILES	IC50 at 72 h
Cc1c(C)c2c(c(C)c1O)CCC(C)(C(=O)NCC1CC(C)(C)N([O])C1(C)C)O2 (stereo not drawn)	192 µM

Test system: not listed separately
Assay: Cytotoxicity against human CEM13 cells assessed as reduction in cell viability after 72 hrs by MTT assay
Format: functional, cell-based
Conditions: CEM13, 72 h

SMILES	pIC50
Cc1c(C)c2c(c(C)c1O)CCC(C)(C(=O)NCC1CC(C)(C)N([O])C1(C)C)O2 (stereo not drawn)	< 3.52

Test system: not listed separately
Assay: Cytotoxicity against human MT4 cells assessed as reduction in cell viability after 72 hrs by MTT assay
Format: functional, cell-based
Conditions: MT4, 72 h

SMILES	pIC50
Cc1c(C)c2c(c(C)c1O)CCC(C)(C(=O)NCC1CC(C)(C)N([O])C1(C)C)O2 (stereo not drawn)	3.64

Test system: not listed separately
Assay: Cytotoxicity against human U937 cells assessed as reduction in cell viability after 72 hrs by MTT assay
Format: functional, cell-based
Conditions: U-937, 72 h

SMILES	pIC50
Cc1c(C)c2c(c(C)c1O)CCC(C)(C(=O)NCC1CC(C)(C)N([O])C1(C)C)O2 (stereo not drawn)	3.87

Test system: not listed separately
Assay: Cytotoxicity against human HepG2 cells assessed as reduction in cell viability at 300 uM after 72 hrs by MTT assay
Format: functional
Conditions: HepG2, 72 h

SMILES	inhibition at 300 µM
Cc1c(C)c2c(c(C)c1O)CCC(C)(C(=O)NCC1CC(C)(C)N([O])C1(C)C)O2 (stereo not drawn)	38%

Test system: not listed separately
Assay: Cytotoxicity against mouse LMTK cells assessed as reduction in cell viability at 300 uM after 72 hrs by MTT assay
Format: toxicity
Conditions: read-out: INH

SMILES	cytotoxicity at 72 h, 300 µM
Cc1c(C)c2c(c(C)c1O)CCC(C)(C(=O)NCC1CC(C)(C)N([O])C1(C)C)O2 (stereo not drawn)	25%

Test system: not listed separately
Assay: Ratio of IC50 for human RPMI8226 cells to concentration causing antioxidant activity in Salmonella typhimurium TA102 harboring […] mutant
Format: functional, RPMI-8226
Conditions: not given

SMILES	Ratio
Cc1c(C)c2c(c(C)c1O)CCC(C)(C(=O)NCC1CC(C)(C)N([O])C1(C)C)O2 (stereo not drawn)	100 - 1000
